Test results from PubChem BioAssay (NCI).
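1) Cells in 96-well plates. 2) Compound, 48 h, 5 concentrations. 3) Linear interpolation between surrounding doses. 4) Unreached endpoint = highest concentration. TGI is the concentration that stops growth completely.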

Key:
Test in all cases: growth of human tumour cells (NCI), 48 h
NCI-H460 lung = test system: NCI-H460 lung
SK-MEL-2 melanoma = test system: SK-MEL-2 melanoma
PC-3 prostate = test system: PC-3 prostate
EKVX NSCLC = test system: EKVX NSCLC
NCI-H226 lung = test system: NCI-H226 lung
TK-10 renal = test system: TK-10 renal
SK-OV-3 ovarian = test system: SK-OV-3 ovarian
LOX IMVI melanoma = test system: LOX IMVI melanoma
KM12 colon = test system: KM12 colon
HOP-92 NSCLC = test system: HOP-92 NSCLC
SW-620 colon = test system: SW-620 colon
MDA-MB-435 = test system: MDA-MB-435
NCI-H522 lung = test system: NCI-H522 lung
CCRF-CEM leukemia = test system: CCRF-CEM leukemia
U251 CNS = test system: U251 CNS
A549 NSCLC = test system: A549 NSCLC
NCI-H23 lung = test system: NCI-H23 lung
HCC-2998 colon = test system: HCC-2998 colon
HOP-62 NSCLC = test system: HOP-62 NSCLC
SF-539 CNS = test system: SF-539 CNS
HCT-116 colon = test system: HCT-116 colon
OVCAR-5 ovarian = test system: OVCAR-5 ovarian
UACC-62 melanoma = test system: UACC-62 melanoma
HL-60(TB) leukemia = test system: HL-60(TB) leukemia
RPMI-8226 leukemia = test system: RPMI-8226 leukemia
SK-MEL-5 melanoma = test system: SK-MEL-5 melanoma
M14 melanoma = test system: M14 melanoma
K-562 leukemia = test system: K-562 leukemia
BT-549 breast = test system: BT-549 breast
MOLT-4 leukemia = test system: MOLT-4 leukemia
OVCAR-4 ovarian = test system: OVCAR-4 ovarian
MCF7 breast = test system: MCF7 breast
OVCAR-8 ovarian = test system: OVCAR-8 ovarian
UO-31 renal = test system: UO-31 renal
OVCAR-3 ovarian = test system: OVCAR-3 ovarian
SNB-75 CNS = test system: SNB-75 CNS
MDA-N = test system: MDA-N
IGROV1 ovarian = test system: IGROV1 ovarian
SF-268 CNS = test system: SF-268 CNS
SNB-19 CNS = test system: SNB-19 CNS
MALME-3M melanoma = test system: MALME-3M melanoma
UACC-257 melanoma = test system: UACC-257 melanoma
HT29 colon = test system: HT29 colon
HCT-15 colon = test system: HCT-15 colon
A498 renal = test system: A498 renal
SN12C renal = test system: SN12C renal
CAKI-1 renal = test system: CAKI-1 renal
HS 578T breast = test system: HS 578T breast
ACHN renal = test system: ACHN renal
DU-145 prostate = test system: DU-145 prostate
NCI/ADR-RES ovarian = test system: NCI/ADR-RES ovarian
SF-295 CNS = test system: SF-295 CNS
786-0 renal = test system: 786-0 renal
SK-MEL-28 melanoma = test system: SK-MEL-28 melanoma
SR leukemia = test system: SR leukemia
RXF 393 renal = test system: RXF 393 renal
MDA-MB-231 breast = test system: MDA-MB-231 breast
COLO 205 colon = test system: COLO 205 colon

Measured: TGI

COc1ccc(COC(=O)NNC(=O)C2CSC(c3ccccc3)N2C(C)=O)cc1 (centres undefined)
not listed: SK-MEL-28 melanoma | SR leukemia | RXF 393 renal | MDA-MB-231 breast | COLO 205 colon
> 100 µM: all other assays above

Cc1ccc(-n2c(C)n[nH]c2=O)cc1
not listed: NCI-H460 lung | NCI-H226 lung | HL-60(TB) leukemia | OVCAR-4 ovarian | MALME-3M melanoma | A498 renal | CAKI-1 renal | HS 578T breast
> 100 µM: all other assays above

CC[C@H](CC[C@@H](C)[C@H]1CC[C@H]2[C@@H]3CC=C4C[C@@H](O)CC[C@]4(C)[C@H]3CC[C@]12C)C(C)C
not listed: SK-OV-3 ovarian | UACC-62 melanoma | HL-60(TB) leukemia | BT-549 breast | A498 renal | SR leukemia | RXF 393 renal
> 100 µM: all other assays above
